Laboratory results: patent publication US20250137032A1, “TWO-COMPONENT SYSTEMS FOR USE IN CELL-FREE GENE EXPRESSION” (priority 2023, published 2025)
Structures can show the parent of a compound that is named as a salt.

Columns and labels:
[1] = literature value, cited from earlier work; for Kc (kBT) (6): bending rigidity; for CPP (4): critical packing parameter; for Tm (7): membrane transition temperature, in °C (unit assumed)
[2] = tested on: cell-free protein synthesis; experiment: Cell-free protein synthesis (myTXTL): NarX western blot band intensity and luminescence; type: biochemical, E. coli; settings: increasing ligand concentration, NarX band intensity / luminescence (FIG. 7, FIG. 14)
Description: Protein expression was performed using the myTxTl system (Arbor Biosceinces). 5 μL reactions were assembled with 10 mM lipid, 0.1 nM plasmid encoding T7 RNA polymerase, 9.9 nM plasmids encoding NarX, NarL, and reporter gene (nano luciferase or GFP) in specified ratios, and various concentration of ligands. Cell-free reactions were allowed to progress at 30° C. for 16 hours. Luciferase luminescence was read using the NanoGlo luciferase system and GFP fluorescence (ex. 480 nm, em. 507 nm) was read using a Molecular Devices Spectra Max i3 plate reader. To calculate fold change, luminescence values in the presence of nitrate were divided by the luminescence values in the absence of nitrate for each replicate.
1 μL of cell-free reaction was diluted to 15 μL in Laemlli buffer and heated at 95° C. for 10 minutes. Samples were then loaded and run on a 12% Mini-PROTEAN TGX Precast Protein Gel (Bio-Rad) at 150 V for 90 minutes. Wet transfer was performed onto a PVDF membrane (Bio-Rad) for 45 min at 100 V. Membranes were then blocked for an hour at room temperature in 5% milk in TBST (pH 7.6:50 mM Tris, 150 mM NaCl, HCl to pH 7.6, 0.1% Tween) and incubated for 1 hour at room temperature or overnight at 4° C. with primary solution (anti-Flag (Sigma F1804) or anti-Myc (ab32), diluted 1:1000 in 5% milk in TBST). Primary antibody solution was decanted, and the membrane was washed three times for 5 minutes in TBST and then incubated in secondary solution at room temperature for 1 hour (HRP-anti-Mouse (CST 7076) diluted 1:3000 in 5% milk in TBST). Membranes were then washed in TBST and incubated with Clarity Western ECL Substrate (Bio-Rad) for 5 min. Blots were imaged using an Azure Biosystems c280 imager and band intensities were quantified with ImageJ.

NarX-RssA = biological target: T1, NarX-RssA (Serratia marcescens, UniProt Q8GP19); experiment: Cell-free iron-sensing NarX chimera, luciferase reporter; type: biochemical
T1 construct: All genes were; made in house; host or cells: cell-free expression in situ, myTXTL E. coli extract, with DMPC, POPC or DOPC vesicles

[3] = Dynamic light scattering of 100% POPC vesicles in the presence of ligands (liposome stability); type: physicochemical
NarX-VanS Chimera = experiment: Cell-free vancomycin-sensing NarX chimera, luciferase reporter; type: biochemical, Enterococcus faecium
[4] = plasmid concentrations which enabled functional NarX sensing
[5] = reporter plasmid reduced by 90%, DMPC, POPC, DOPC vesicles
[6] = 100% POPC vesicles in the presence of 100 μM ligand
[7] = 100% POPC vesicles in the presence of 1 mM ligand

Structure (SMILES)	Kc (kBT) (6) [1]	CPP (4) [1]	2 Dc (A) (2) [1]	Area (Å^2) (1) [1]	C2:C2 (Å) (6) [1]	DHH (Å) (2) [1]	F (kcal/mol/Å) (6) [1]	Ka (dyn/cm) (6) [1]	Kc^PBM (6) [1]	Kg (10^−20 J) (6) [1]	Kg/Kc (6) [1]	Kg^M (10^−20 J) (6) [1]	Kg^M/Kc^M (6) [1]	Ktw (10^−20 J) (6) [1]	Kθ (10^−20 J/nm^2) (6) [1]	Lipid Volume (A^3) (3) [1]	P-C (Å) Head group thickness (6) [1] [Å]	P:P (Å) (6) [1]	δ (Å) (6) [1]	Tm (7) [1]	other results
CCCCCCCC/C=C\CCCCCCCC(=O)O[C@H](COC(=O)CCCCCCCCCCCCCCC)COP(=O)(O)OCCN [POPE, 1-palmitoyl-2-oleoyl-sn-glycero-3-phosphoethanolamine]	31.2	1.08	32.6	56.6	30.67	43.4	0.2041	260	10.78	5.85 10^−20 J	0.44	0.06 10^−20 J	0.01	2.36 10^−20 J	8.04 10^−20 J/nm^2	1176.8	10.88	41.55	10.12	25	# of lipid contacts (5) [1]: 1.5; Lateral Pressure (pN/nm^2) (3) [1]: 456 pN/nm^2; Ro (Å) (6) [1]: −2220 Å; γ chain (6) [1]: 0.188
O.O.O.O.O.O=S(=O)([O-])[O-].[Cu+2] [copper, copper (II) sulfate pentahydrate]																					effect on cell-free protein expression [2]: inhibited cell-free protein expression; effect on cell-free protein expression ([2]; listed as Copper): inhibits cell-free protein synthesis
CCCCCCCC/C=C\CCCCCCCC(=O)OC[C@H](COP(=O)([O-])OCC[N+](C)(C)C)OC(=O)CCCCCCC/C=C\CCCCCCCC [DOPC, 1,2-dioleoyl-sn-glycero-3-phosphocholine]	28.8	1.09	28.8	67.4	27.37	36.7	0.061	290	9.71	−0.08 10^−20 J	−0.01	−0.84 10^−20 J	−0.14	0.99 10^−20 J	6.4 10^−20 J/nm^2	1304.5	10.98	38.35	9.41	−17	Lateral Pressure (pN/nm^2) (3) [1]: 480 pN/nm^2; γ chain (6) [1]: 0.18(5) ·
CCCCCCCCCCCCCC(=O)OC[C@H](COP(=O)([O-])OCC[N+](C)(C)C)OC(=O)CCCCCCCCCCCCC [DMPC, 1,2-dimyristoyl-sn-glycero-3-phosphocholine]	29.3	1	25.4	60.6	24.54	35.3	−0.0225	210	5.75	−3.23 10^−20 J	−0.26	−1.32 10^−20 J	−0.22	2.18 10^−20 J	4.02 10^−20 J/nm^2	1100	11.11	35.65	9.48	24	Lateral Pressure (pN/nm^2) (3) [1]: 442 pN/nm^2; Ro (Å) (6) [1]: −47 Å; γ chain (6) [1]: 0.247
[Cl][Fe]([Cl])[Cl] [Iron, iron (III) chloride anhydrous]																					sensor response to ligand (gene expression) (NarX-RssA; [4]): no gene expression was observed; sensor response to ligand (luciferase expression) (NarX-RssA; [5]): functional sensors; Diameter (nm) [3, 6]: 118.62 nm; P.D.I. [3, 6]: 0.135
CCCCCCCC/C=C\CCCCCCCC(=O)O[C@H](COC(=O)CCCCCCCCCCCCCCC)COP(=O)([O-])OCC(O)CO.[Na+] (mixture of isomers) [POPG, 1-palmitoyl-2-oleoyl-sn-glycero-3-phospho-(1′-rac-glycerol) (sodium salt)]	26.9	0.7	27.9	66	26.88	38.5	0.0036	180	5.67	−2.76 10^−20 J	−0.24	−1.43 10^−20 J	−0.25	1.05 10^−20 J	6.15 10^−20 J/nm^2	1226.6	10.61	37.49	9.57	−2	
CCCCCCCC/C=C\CCCCCCCC(=O)OC(COC(=O)CCCCCCCCCCCCCCC)COP(=O)([O-])OCC[N+](C)(C)C (stereo not drawn) [POPC, 1-palmitoyl-2-oleoyl-glycero-3-phosphocholine]	31.7	0.61	28.8	64.3	27.52	37	0.0303	280	9.5	−1.38 10^−20 J	−0.1	−1.09 10^−20 J	−0.17	1.45 10^−20 J	5.52 10^−20 J/nm^2	1231.2	11.02	38.54	9.64	−9	# of lipid contacts (5) [1]: 2.75; Lateral Pressure (pN/nm^2) (3) [1]: 517 pN/nm^2; Ro (Å) (6) [1]: −315 Å; γ chain (6) [1]: 0.198
CN[C@H](CC(C)C)C(=O)N[C@H]1C(=O)N[C@@H](CC(N)=O)C(=O)N[C@H]2C(=O)N[C@H]3C(=O)N[C@H](C(=O)N[C@H](C(=O)O)c4cc(O)cc(O)c4-c4cc3ccc4O)[C@H](O)c3ccc(c(Cl)c3)Oc3cc2cc(c3O[C@@H]2O[C@H](CO)[C@@H](O)[C@H](O)[C@H]2O[C@H]2C[C@](C)(N)[C@H](O)[C@H](C)O2)Oc2ccc(cc2Cl)[C@H]1O [Vancomycin, vancomycin hydrochloride]																					sensor response to ligand (gene expression) (NarX-VanS Chimera; [4]): no gene expression was observed; sensor response to ligand (luciferase expression) (NarX-VanS Chimera; [5]): did not induce an increase in luciferase expression; Diameter (nm) [3, 7]: 124.88 nm; P.D.I. [3, 7]: 0.189
